# From patent US6150382A, “Thio acid derived monocyclic n-heterocyclics as anticoagulants” (Berlex Laboratories, Inc., priority 1999, dated 2000)
# Where a SMILES comes first, the peptide text is derived from it. [ ]: non-standard residue; d: D form. The star is where a group is joined. pNA = O=[N+]([O-])c1ccc(N*)cc1
# What was measured:
# [1] = target: T1, Human tissue plasminogen activator (tPA) (Two chains, Sigma) (Homo sapiens, UniProt P00750); experiment: In vitro chromogenic assay for tissue plasminogen activator; type: biochemical; details: substrate concentration stated equal to Km under the present assay conditions; pH 7.5, ambient temperature; read-out: Km (S2288)
# T1 construct: purchased Sigma
# Description: (§1) The activities were determined as an initial rate of cleavage of the peptide p-nitroanilide by the enzyme. The cleavage product, p-nitroaniline, absorbs at 405 nm with a molar extinction coefficient of 9920M^-1 cm^-1.
# (§2) 50 mM Tris HCl, 150 mM NaCl, 2.5 mM CaCl2, and
# 3. Human tissue plasminogen activator (tPA) (Two chains, Sigma) stock solution: 1 mg/mL, stored at -80° C. (working solution (2×): 1361 ng/mL in assay buffer, prepare prior to use).
# 3. S2288 (tPA assay) stock solution: 10 mM in deionized H2 O, stored at 4° C. (working solution (4×): 1484 μM in assay buffer).
# (§3) Assays were performed in 96-well microtiter plates in a total volume of 200 μl. […] Concentrations of the standard inhibitor compound in the assay were from 5 μM to 0.021 μM in 1 to 3 dilution. Concentration of the test compounds in the assay typically were from 10 μM to 0.041 μM in 1 to 3 dilution. For potent test compounds, the concentrations used in the factor Xa assay were further diluted 100 fold (100 nM to 0.41 nM) or 1000 fold (10 nM to 0.041 nM). […]
# (§4) The enzyme kinetics were measured at 405 nm at 10 seconds intervals for five minutes in a THERMOmax plate reader at ambient temperature.
# (§5) Enzyme rates were calculated as mOD/min based on the first two minutes readings. The IC50 values were determined by fitting the data to the log-logit equation (linear) or the Morrison equation (non-linear) with an EXCEL spread-sheet. […]
# [2] = target: T2, Human thrombin (Homo sapiens, UniProt P00734); experiment: In vitro chromogenic assay for thrombin; type: biochemical; details: substrate concentration stated equal to Km under the present assay conditions; pH 7.5, ambient temperature; read-out: Km (S2302)
# T2 construct: forms the prothrombinase complex which converts prothrombin to thrombin; purchased Enzyme Research Lab
# Description: as §1, §2
# 2. Human thrombin stock solution: Stored at -80° C. (working solution (2×): 1200 ng/mL or 40 nM in assay buffer, prepare prior to use).
# 2. S2302 (Thrombin assay) stock solution: 10 mM in deionized H2 O, stored at 4° C. (working solution (4×): 1200, μM in assay buffer).
# as §3, §4, §5
# T1 sequence (P00750 311-562 limits assumed): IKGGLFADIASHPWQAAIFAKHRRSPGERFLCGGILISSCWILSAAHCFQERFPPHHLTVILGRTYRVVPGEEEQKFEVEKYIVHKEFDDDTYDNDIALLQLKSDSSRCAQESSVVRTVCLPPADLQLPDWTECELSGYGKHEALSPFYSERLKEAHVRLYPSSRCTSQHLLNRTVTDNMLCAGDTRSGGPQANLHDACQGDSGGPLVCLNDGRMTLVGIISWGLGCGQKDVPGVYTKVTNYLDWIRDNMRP
# T1 sequence (P00750 36-310 partner limits assumed): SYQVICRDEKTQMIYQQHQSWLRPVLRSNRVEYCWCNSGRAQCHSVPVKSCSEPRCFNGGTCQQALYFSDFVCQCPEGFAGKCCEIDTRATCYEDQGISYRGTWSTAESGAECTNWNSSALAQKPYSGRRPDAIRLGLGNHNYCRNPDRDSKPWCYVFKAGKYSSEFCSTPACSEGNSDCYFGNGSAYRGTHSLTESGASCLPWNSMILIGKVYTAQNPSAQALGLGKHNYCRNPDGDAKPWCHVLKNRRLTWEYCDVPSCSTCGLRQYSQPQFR
Km [1] [µM],Km [2] [µM],SMILES
371,,CC[C@@H](C)[C@@H](N)C(=O)N1CCC[C@H]1C(=O)N[C@@H](CCCN=C(N)N)C(=O)Nc1ccc([N+](=O)[O-])cc1 [Example S2288] (H-[dI]-Pro-Arg-pNA)
,300,N=C(N)NCCC[C@H](NC(=O)[C@H](Cc1ccccc1)NC(=O)[C@H]1CCCN1)C(=O)Nc1ccc([N+](=O)[O-])cc1 [Example S2302] (H-[dP]-Phe-Arg-pNA)
